The record followed here is US8258162B2, “Catechol derivative, pharmaceutical composition containing the same, use of the catechol derivative, and use of the pharmaceutical composition” (Kissei Pharmaceutical Co., Ltd., priority 2008, dated 2012).

One assay concerns the target T1, recombinant human COMT (Homo sapiens, UniProt P21964).
T1 construct: GST (N, cleaved yes); made in house; host or cells: E. coli BL21 (DE3) Codon Plus RP, pGEX-2T vector
T1 sequence (P21964 with tags, fused parts or gaps): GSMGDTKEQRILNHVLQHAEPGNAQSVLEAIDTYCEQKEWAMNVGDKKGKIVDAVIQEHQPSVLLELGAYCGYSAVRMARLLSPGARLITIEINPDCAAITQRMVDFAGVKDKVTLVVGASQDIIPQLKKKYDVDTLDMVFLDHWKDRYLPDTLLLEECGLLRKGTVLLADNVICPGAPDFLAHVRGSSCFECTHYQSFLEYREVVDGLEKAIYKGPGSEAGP
Nature of the assay: Human COMT inhibitory potency. The class given is biochemical. The conditions noted are these: catechol substrate, [3H]-S-adenosyl-L-methionine, 37° C. 30 minutes.

Assay [1] concerns rat cryopreserved hepatocytes. The assay is described as follows: Rat hepatocyte toxicities (cell viability, ATP activity). The class given is cell-based. The conditions noted are these: concentration that shows 50% of the number of viable cells of control, 4 hours at 37° C.
The subject of a further assay is Rat brain COMT. The assay is described as follows: Inhibition of rat brain COMT activity after oral administration. Conditions: 10 mg/kg oral, percentage of Control sample (100%); for Brain (COMT activity %) 1 hour: 1 hour after administration; for Brain (COMT activity %) 5 hours: 5 hours after administration.
The next assay relates to Rat liver COMT. Nature of the assay: Inhibition of rat liver COMT activity after oral administration. The conditions noted are these: 10 mg/kg oral, percentage of Control sample (100%); for Liver (COMT activity %) 1 hour: 1 hour after administration; for Liver (COMT activity %) 5 hours: 5 hours after administration.
Assay [2] has as its system unilateral 6-hydroxydopamine-lesioned hemi-parkinsonian rats. Nature of the assay: Potentiation of the efficacy of L-dopa in unilateral 6-hydroxydopamine-lesioned hemi-parkinsonian rats (turning behavior). The conditions noted are these: 10 mg/kg oral with 5 mg/kg L-dopa and 30 mg/kg carbidopa; for Duration: duration of contralateral rotation response; for Total counts: summed contralateral rotation counts during drug action. The class given is in vivo, rat.

Some results are limits rather than exact numbers.

On to `Cc1cc(C(=O)c2c(C#N)cc(O)c(O)c2[N+](=O)[O-])no1` [Compound 1-38], for which, on recombinant human COMT, the IC50 was determined as 8.6 nM. This compound gave an EC50 in assay [1] of more than 300000 nM.

For `CCOC(=O)c1cc(O)c(O)c([N+](=O)[O-])c1C(=O)C(F)(F)F` [Compound 1-23], at recombinant human COMT, the IC50 was found to be 8.1 nM.

For `N#Cc1cc(O)c(O)c([N+](=O)[O-])c1C(=O)C1CCCCC1` [Compound 1-34], in the assay on Rat brain COMT, the “Brain (COMT activity %) 1 hour” value amounted to 62.2% and the “Brain (COMT activity %) 5 hours” value is 78.7%. In addition, in the assay with Rat liver COMT, the “Liver (COMT activity %) 1 hour” value is 0.0% and the “Liver (COMT activity %) 5 hours” value worked out at 1.0%. The IC50 on recombinant human COMT stood at 8.1 nM. This compound came in with an EC50 in assay [1] of more than 300000 nM.

In the case of `O=C(c1ccccc1)c1cc(O)c(O)c([N+](=O)[O-])c1C(=O)c1ccccc1` [compound 2, (6-benzoyl-3,4-dihydroxy-2-nitrophenyl)phenylmethanone, reference compound], at recombinant human COMT, the IC50 was found to be 54 nM.

`N#Cc1cc(O)c(O)c([N+](=O)[O-])c1C(=O)c1ccccc1F` [Compound 1-29, 2-(2-fluorobenzoyl)-4,5-dihydroxy-3-nitrobenzonitrile]: on recombinant human COMT, the concentration for half-maximal inhibition (IC50) is 6.8 nM.

Consider `Cc1ccc(C(=O)c2c(C#N)cc(O)c(O)c2[N+](=O)[O-])cc1` [Compound 1-27], for which, on recombinant human COMT, the IC50 came out at 9.7 nM. The same compound gave an EC50 in assay [1] of more than 300000 nM.

`COC(=O)c1ccc(C(=O)c2c(C(=O)OC(C)C)cc(O)c(O)c2[N+](=O)[O-])cc1` [Compound 1-8]: the IC50 on recombinant human COMT is 8.3 nM.

As to `CCOC(=O)c1cc(O)c(O)c([N+](=O)[O-])c1C(=O)c1ccno1` [Compound 1-15], the IC50 at recombinant human COMT turned out to be 7.1 nM.

On to `CCOC(=O)Oc1cc(C(=O)c2ccccc2)c(C(=O)c2ccccc2)c([N+](=O)[O-])c1OC(=O)OCC` [compound 3, carbonic acid 4,5-dibenzoyl-2-ethoxycarbonyloxy-3-nitro-phenyl ester ethy ester, reference compound], for which the IC50 on recombinant human COMT was determined as 1180 nM.

On to `CC(=O)c1ccc(C(=O)c2c(C(=O)OC(C)C)cc(O)c(O)c2[N+](=O)[O-])cc1` [Compound 1-7], for which the IC50 at recombinant human COMT stood at 4 nM.

Regarding `COC(=O)c1cc(O)c(O)c([N+](=O)[O-])c1C(C)=O` [Compound 1-20], at recombinant human COMT, the IC50 is 9.5 nM. This compound also had an EC50 in assay [1] of more than 300000 nM.

Regarding `CCOC(=O)c1cc(O)c(O)c([N+](=O)[O-])c1C(=O)c1ccccc1` [Compound 1-1, Ethyl 2-benzoyl-4,5-dihydroxy-3-nitrobenzoate], in the assay with Rat brain COMT, the “Brain (COMT activity %) 1 hour” value came out at 8.9% and the “Brain (COMT activity %) 5 hours” value is recorded as 56.2%. Besides, in the assay on Rat liver COMT, the “Liver (COMT activity %) 1 hour” value came out at 0.6% and the “Liver (COMT activity %) 5 hours” value is on record as 9.0%. The IC50 on recombinant human COMT was 7.8 nM. The same compound returned an EC50 in assay [1] of 262000 nM. In assay [2], the Duration was 522.5 min and the Total counts was 3188.3.

Take `O=C(c1ccccc1)c1ccc(O)c(O)c1[N+](=O)[O-]` [compound 1, (3,4-dihydroxy-2-nitrophenyl)phenymethanone, reference compound]: the IC50 on recombinant human COMT was 40.4 nM.

Turning to `CC(C)OC(=O)c1cc(O)c(O)c([N+](=O)[O-])c1C(=O)c1ccccc1C#N` [Compound 1-9], the IC50 at recombinant human COMT is 7 nM.

In assay [1], `N#Cc1cc(O)c(O)c([N+](=O)[O-])c1C(=O)N1CCCCC1` [Compound 1-43] had an EC50 of more than 300000 nM.

Take `CCOC(=O)c1cc(O)c(O)c([N+](=O)[O-])c1C(=O)c1cccs1` [Compound 1-13]: in the assay on Rat brain COMT, the “Brain (COMT activity %) 1 hour” value came to 14.8% and the “Brain (COMT activity %) 5 hours” value came to 61.0%. Further, in the assay with Rat liver COMT, the “Liver (COMT activity %) 1 hour” value turned out to be 6.6% and the “Liver (COMT activity %) 5 hours” value is 15.3%. Moreover, the IC50 at recombinant human COMT came out at 8.4 nM. This compound also gave an EC50 in assay [1] of more than 300000 nM. In addition, in assay [2], the Duration amounted to 461.4 min and the Total counts worked out at 3395.7.

With `N#Cc1cc(O)c(O)c([N+](=O)[O-])c1C(=O)c1ccno1` [Compound 1-37], on recombinant human COMT, the IC50 is 8.6 nM.

As to `COC(=O)c1cc(O)c(O)c([N+](=O)[O-])c1C(=O)c1ccccc1` [Compound 1-2], the IC50 on recombinant human COMT is 8.9 nM. The EC50 in assay [1] is more than 300000 nM. Also, in assay [2], the Duration is 452.9 min and the Total counts came out at 3569.0.

Take `Cc1ccc(C(=O)c2cc(O)c(O)c([N+](=O)[O-])c2)cc1` [Tolcapone, 3,4-dihydroxy-4′-methyl-5-nitro-benzophenone, reference compound]: in the assay with Rat liver COMT, the “Liver (COMT activity %) 1 hour” value is 2.5% and the “Liver (COMT activity %) 5 hours” value is on record as 30.0%. Besides, in assay [2], the Duration amounted to 430.0 min and the Total counts stood at 2578.7.

On to `CCOC(=O)c1cc(O)c(O)c([N+](=O)[O-])c1C(=O)c1nccs1` [Compound 1-18], for which the IC50 at recombinant human COMT stood at 4.7 nM.
